Source: patent publication US20220395472A1 (Dermavant Sciences GmbH, priority 2021, published 2022)

System: adults with plaque psoriasis
Test: Long-term open-label extension study (PSOARING 3): Physician Global Assessment (PGA), treatment episodes, treatment success, remittive effect
Format: in vivo, human
Details: for Average Duration of Episodes, Mean (SD) / Average Duration of Episodes, Median / Average Duration of Treatment Success, Median / Duration of 1st Episode, Mean (SD) / Duration of 1st Episode, Median / Duration of 1st Success, Mean (SD) / Duration of 1st Success, Median / Duration of 2nd Episode, Mean (SD) / Duration of 2nd Episode, Median / Duration of 2nd Success, Mean (SD) / Duration of 2nd Success, Median / Duration of 3rd Episode, Mean (SD) / Duration of 3rd Episode, Median / Duration of 3rd Success, Mean (SD) / Duration of 3rd Success, Median / Duration of 4th Episode, Mean (SD) / Duration of 4th Episode, Median / Duration of Last Episode, Mean (SD) / Duration of Last Episode, Median / Duration of Last Success, Mean (SD) / Duration of Last Success, Median / Total Duration of Treatment Episodes, Mean (SD) / Total Duration of Treatment Episodes, Median / Total Duration of Treatment Success, Mean (SD) / Total Duration of Treatment Success, Median / Average Duration of Treatment Success (treatment free interval), Mean (SD) / Average Duration of Treatment Success, Mean (SD): ITT; for Average Duration of Treatment Success (treatment free interval), Mean (SD): Overall (n=299)
Experimental: This extension study consisted of up to 40 weeks of treatment and a 4 week, safety follow up period.
At the completion of the Week 12 visit of the DB, pivotal Phase 3 study, eligibility of the subjects opting to enroll in this extension study was confirmed. Study visits during the treatment period for all subjects occurred every 4 weeks (±3 days). A phone call was performed at Week 2 (Day 15). Unscheduled visits may have occurred, as needed. Subjects who withdrew from this study before Week 40 returned to the study center for an Early Termination visit. The total duration of this extension study participation was 44 weeks. Subjects in this study were treated as follows based on their PGA score from the Week 12 visit in the DB, pivotal Phase 3 study (Study DMVT 505 3001 or Study DMVT 505 3002).
The PGA was used to assess the primary efficacy endpoint in this study. The PGA is a clinical tool for assessing the current state/severity of a subject's psoriasis at a given time point. It is a static, 5 point, morphological assessment of overall disease severity, as determined by the Investigator, using the clinical characteristics of erythema, scaling, and plaque thickness/elevation as guidelines; higher PGA scores represent more severe disease (0=clear, 1=almost clear, 2=mild, 3=moderate, and 4=severe). The BSA affected was not considered in scoring of the PGA. Variations of the PGA are frequently used in clinical studies because it is a simple assessment, similar to those used in clinical practice. The PGA was performed first, prior to the % BSA, PASI, and LTS assessments.
Time to event parameters, such as the time from treatment success to subsequent worsening (PGA≥2) or duration of treatment episode, were summarized by the Kaplan Meier product limit method using OC.

For CC(C)c1c(O)cc(/C=C/c2ccccc2)cc1O [Tapinarof, 3,5-Dihydroxy-4-isopropyl-trans-stilbene], the “PGA 3 - Moderate” value (Baseline, Overall) was 249 (32.8) n (%), the “PGA 4 - Severe” value (Baseline, Overall) was 23 (3.0) n (%) and the “PGA 0 - Clear” value (Baseline, Tapinarof (Pivotal)) was 73 (14.5) n (%). For the same compound, the “PGA 1 - Almost Clear” value (Baseline, Tapinarof (Pivotal)) was 144 (28.5) n (%), the “PGA 2 - Mild” value (Baseline, Tapinarof (Pivotal)) was 188 (37.2) n (%) and the “PGA 3 - Moderate” value (Baseline, Tapinarof (Pivotal)) was 93 (18.4) n (%). The “PGA 4 - Severe” value (Baseline, Tapinarof (Pivotal)) was 7 (1.4) n (%), the “Average Duration of Episodes, Mean (SD)” value (Overall) was 162.7 (96.20) days and the “Average Duration of Episodes, Median” value (Overall) was 168.0 days. For the same compound, the “Average Duration of Treatment Success, Median” value (Overall) was 84.0 days, the “Duration of 1st Episode, Mean (SD)” value (Overall) was 163.1 (97.10) days and the “Duration of 1st Episode, Median” value (Overall) was 169.0 days. For the same compound, the “Duration of 1st Success, Mean (SD)” value (Overall) was 100.0 (78.49) days, the “Duration of 1st Success, Median” value (Overall) was 84.0 days and the “Duration of 2nd Episode, Mean (SD)” value (Overall) was 74.0 (55.35) days. For the same compound, the “Duration of 2nd Episode, Median” value (Overall) was 57.0 days, the “Duration of 2nd Success, Mean (SD)” value (Overall) was 65.4 (60.68) days and the “Duration of 2nd Success, Median” value (Overall) was 41.0 days. The “Duration of 3rd Episode, Mean (SD)” value (Overall) was 50.4 (41.38) days, the “Duration of 3rd Episode, Median” value (Overall) was 32.5 days and the “Duration of 3rd Success, Mean (SD)” value (Overall) was 30.0 (26.46) days. The “Duration of 3rd Success, Median” value (Overall) was 28.0 days, the “Duration of 4th Episode, Mean (SD)” value (Overall) was 1.0 (NE) days and the “Duration of 4th Episode, Median” value (Overall) was 1.0 days. The “Duration of Last Episode, Mean (SD)” value (Overall) was 162.4 (98.51) days, the “Duration of Last Episode, Median” value (Overall) was 169.0 days and the “Duration of Last Success, Mean (SD)” value (Overall) was 95.4 (82.18) days. The “Duration of Last Success, Median” value (Overall) was 64.0 days, the “Total Duration of Treatment Episodes, Mean (SD)” value (Overall) was 177.6 (90.38) days and the “Total Duration of Treatment Episodes, Median” value (Overall) was 197.0 days. The “Total Duration of Treatment Success, Mean (SD)” value (Overall) was 119.3 (81.80) days, the “Total Duration of Treatment Success, Median” value (Overall) was 112.0 days and the “Average Duration of Treatment Success (treatment free interval), Mean (SD)” value was 97.9 (76.60) days. For the same compound, the “Average Duration of Treatment Success (treatment free interval), Mean (SD)” value (listed as tapinarof) was 97.9 days, the “Average Duration of Episodes, Mean (SD)” value (Tapinarof (Pivotal) group) was 157.1 (97.16) days and the “Average Duration of Episodes, Median” value (Tapinarof (Pivotal) group) was 140.5 days. The “Average Duration of Treatment Success, Mean (SD)” value (Tapinarof (Pivotal) group) was 102.4 (77.90) days, the “Average Duration of Treatment Success, Median” value (Tapinarof (Pivotal) group) was 84.0 days and the “Duration of 1st Episode, Mean (SD)” value (Tapinarof (Pivotal) group) was 156.6 (98.77) days. For the same compound, the “Duration of 1st Episode, Median” value (Tapinarof (Pivotal) group) was 147.5 days, the “Duration of 1st Success, Mean (SD)” value (Tapinarof (Pivotal) group) was 103.0 (80.13) days and the “Duration of 1st Success, Median” value (Tapinarof (Pivotal) group) was 84.0 days. For the same compound, the “Duration of 2nd Episode, Mean (SD)” value (Tapinarof (Pivotal) group) was 80.7 (58.54) days, the “Duration of 2nd Episode, Median” value (Tapinarof (Pivotal) group) was 60.5 days and the “Duration of 2nd Success, Mean (SD)” value (Tapinarof (Pivotal) group) was 76.5 (63.07) days. For the same compound, the “Duration of 2nd Success, Median” value (Tapinarof (Pivotal) group) was 56.0 days, the “Duration of 3rd Episode, Mean (SD)” value (Tapinarof (Pivotal) group) was 49.6 (52.51) days and the “Duration of 3rd Episode, Median” value (Tapinarof (Pivotal) group) was 28.0 days. The “Duration of 3rd Success, Mean (SD)” value (Tapinarof (Pivotal) group) was 32.7 (28.40) days, the “Duration of 3rd Success, Median” value (Tapinarof (Pivotal) group) was 28.5 days and the “Duration of Last Episode, Mean (SD)” value (Tapinarof (Pivotal) group) was 157.6 (99.25) days. For the same compound, the “Duration of Last Episode, Median” value (Tapinarof (Pivotal) group) was 168.0 days, the “Duration of Last Success, Mean (SD)” value (Tapinarof (Pivotal) group) was 101.5 (83.51) days and the “Duration of Last Success, Median” value (Tapinarof (Pivotal) group) was 82.5 days. The “Total Duration of Treatment Episodes, Mean (SD)” value (Tapinarof (Pivotal) group) was 173.2 (92.39) days, the “Total Duration of Treatment Episodes, Median” value (Tapinarof (Pivotal) group) was 196.0 days and the “Total Duration of Treatment Success, Mean (SD)” value (Tapinarof (Pivotal) group) was 125.4 (83.22) days. For the same compound, the “Total Duration of Treatment Success, Median” value (Tapinarof (Pivotal) group) was 116.5 days, the “Average Duration of Episodes, Mean (SD)” value (Vehicle (Pivotal) group) was 173.4 (93.60) days and the “Average Duration of Episodes, Median” value (Vehicle (Pivotal) group) was 195.0 days. For the same compound, the “Average Duration of Treatment Success, Mean (SD)” value (Vehicle (Pivotal) group) was 86.8 (72.58) days, the “Average Duration of Treatment Success, Median” value (Vehicle (Pivotal) group) was 64.0 days and the “Duration of 1st Episode, Mean (SD)” value (Vehicle (Pivotal) group) was 175.5 (92.74) days. The “Duration of 1st Episode, Median” value (Vehicle (Pivotal) group) was 196.0 days, the “Duration of 1st Success, Mean (SD)” value (Vehicle (Pivotal) group) was 92.8 (74.32) days and the “Duration of 1st Success, Median” value (Vehicle (Pivotal) group) was 85.0 days. For the same compound, the “Duration of 2nd Episode, Mean (SD)” value (Vehicle (Pivotal) group) was 57.8 (43.31) days, the “Duration of 2nd Episode, Median” value (Vehicle (Pivotal) group) was 38.0 days and the “Duration of 2nd Success, Mean (SD)” value (Vehicle (Pivotal) group) was 39.1 (45.75) days. The “Duration of 2nd Success, Median” value (Vehicle (Pivotal) group) was 28.0 days, the “Duration of 3rd Episode, Mean (SD)” value (Vehicle (Pivotal) group) was 51.6 (24.51) days and the “Duration of 3rd Episode, Median” value (Vehicle (Pivotal) group) was 56.0 days. The “Duration of 3rd Success, Mean (SD)” value (Vehicle (Pivotal) group) was 19.3 (15.89) days, the “Duration of 3rd Success, Median” value (Vehicle (Pivotal) group) was 28.0 days and the “Duration of 4th Episode, Mean (SD)” value (Vehicle (Pivotal) group) was 1.0 (NE) days. The “Duration of 4th Episode, Median” value (Vehicle (Pivotal) group) was 1.0 days, the “Duration of Last Episode, Mean (SD)” value (Vehicle (Pivotal) group) was 171.4 (96.61) days and the “Duration of Last Episode, Median” value (Vehicle (Pivotal) group) was 195.0 days. The “Duration of Last Success, Mean (SD)” value (Vehicle (Pivotal) group) was 80.5 (77.32) days, the “Duration of Last Success, Median” value (Vehicle (Pivotal) group) was 56.0 days and the “Total Duration of Treatment Episodes, Mean (SD)” value (Vehicle (Pivotal) group) was 185.9 (85.95) days. For the same compound, the “Total Duration of Treatment Episodes, Median” value (Vehicle (Pivotal) group) was 197.0 days and the “Total Duration of Treatment Success, Mean (SD)” value (Vehicle (Pivotal) group) was 104.3 (76.62) days.
